Results: patent US20230135894A1, “MK2 DEGRADERS AND USES THEREOF” (Kymera Therapeutics, Inc., priority 2021, published 2023)

Columns and labels:
[1] = biological target: T1, MK2 (Homo sapiens, UniProt P49137); test: MK2 degradation in human THP-1 monocytic cells (MSD, 24 h); assay type: cell-based; design: endogenous in cells; key to MK2 MSD THP-1 degradation 24 h GMean External Abs DC50: A (<0.001 μM); B (0.001-0.01 μM); C (0.01-0.1 μM); D (>0.1 μM); —: “-”=not tested or inactive; details: for Dmax: THP-1, THP-1 cells; for DC50: read-out: MK2 MSD THP-1 degradation 24 h GMean External Abs DC50
T1 sequence (P49137 whole entry): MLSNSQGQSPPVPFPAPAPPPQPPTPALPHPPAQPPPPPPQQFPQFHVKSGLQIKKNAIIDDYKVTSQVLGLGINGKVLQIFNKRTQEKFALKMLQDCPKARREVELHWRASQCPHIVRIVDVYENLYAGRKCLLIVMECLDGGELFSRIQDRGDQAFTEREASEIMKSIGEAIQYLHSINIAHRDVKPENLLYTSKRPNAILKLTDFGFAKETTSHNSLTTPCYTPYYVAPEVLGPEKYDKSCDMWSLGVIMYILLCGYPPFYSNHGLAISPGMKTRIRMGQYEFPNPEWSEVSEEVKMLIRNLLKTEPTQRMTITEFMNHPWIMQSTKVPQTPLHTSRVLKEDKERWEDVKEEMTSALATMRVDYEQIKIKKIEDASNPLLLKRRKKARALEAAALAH
How it was run: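 THP-1 cells (200,000/well) treated 24 h at 37 °C with compound dilution series (up to 10 points, 0.1% DMSO). MK2 in RIPA lysates quantified by MSD sandwich immunoassay. DC50 from 4-parameter logistic fit, DMSO-treated cells as high and lysis buffer as low signal.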

[2] = biological target: T1, MK2; test: MK2 degradation in human SW1353 cells (MSD, 24 h); assay type: cell-based; design: endogenous in cells; host or cells: SW-1353 (ATCC HTB-94); key to MK2 MSD SW1353 degradation 24 h GMean External Abs DC50: A (<0.001 μM); B (0.001-0.01 μM); C (0.01-0.1 μM); D (>0.1 μM); —: “-”=not tested or inactive; details: for Dmax: read-out: MK2 MSD SW 1353 24 h Dmax %; for DC50: read-out: MK2 MSD SW1353 degradation 24 h GMean External Abs DC50
How it was run: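 SW1353 chondrosarcoma cells were treated with up to 10-point serial dilutions (0.1% DMSO) for 24 h at 37 °C, then lysed in RIPA buffer. MK2 levels were quantified by MSD sandwich immunoassay; DC50 came from a 4-parameter logistic fit normalised to DMSO-treated cells (high) and lysis buffer (low).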

| Dmax [1] | DC50 ([1]; THP-1 cells) | Dmax [2] | DC50 [2] | MK2 MSD THP-1 degradation 24 h GMean External Abs DC50 ([1]; THP-1 cells) | MK2 MSD SW1353 degradation 24 h GMean External Abs DC50 [2] | SMILES |
| --- | --- | --- | --- | --- | --- | --- |
| < 50% | > 100 nM | < 50% | > 100 nM |  |  | Cn1c(=O)n(C2CCC(=O)NC2=O)c2cccc(CCCN3CCN(c4ccc(F)c(-c5cc(-c6cc7c([nH]6)CCNC7=O)ccn5)c4)CC3)c21 (centres unmarked) [Compound I-133] |
| 50 to 75% | 10 to 100 nM | > 75% | 10 to 100 nM |  |  | O=C1CCN(c2cncc3c(N4CCC(CN5CCN(c6ccc(-c7cc(-c8cc9c([nH]8)C8(CC8)CNC9=O)ccn7)cc6)CC5)CC4)cccc23)C(=O)N1 [Compound I-211] |
| > 75% | < 1 nM | > 75% | < 1 nM |  |  | C[C@@H]1CNc2c(sc3ccc4nc(-c5ccc(N6CCC(CN7CCN(c8ccc9c(c8)n(C)c(=O)n9C8CCC(=O)NC8=O)CC7)CC6)cc5F)ccc4c23)C(=O)N1 (some centres unmarked) [Compound I-306] |
| > 75% | 1 to 10 nM | > 75% | 1 to 10 nM |  |  | CCc1cc(-c2ccc3c(ccc4sc5c(c43)NC[C@@H](C)NC5=O)n2)cc(N2CCN(CC3CCN(c4ccc5c(c4)n(C)c(=O)n5C4CCC(=O)NC4=O)CC3)CC2)c1 (some centres unmarked) [Compound I-233] |
| > 75% | < 1 nM | > 75% | < 1 nM |  |  | C[C@@H]1CNc2c(sc3ccc4nc(-c5ccc(N6CCC(CN7CCC(c8ccc9c(c8)n(C)c(=O)n9C8CCC(=O)NC8=O)CC7)CC6)cc5)ccc4c23)C(=O)N1 (some centres unmarked) [Compound I-119] |
| 50 to 75% |  | > 75% | < 1 nM | — |  | C[C@@H]1CNc2c(sc3ccc4nc(-c5ccc(N6CCN(CCOc7ccc8c(c7)n(C)c(=O)n8C7CCC(=O)NC7=O)CC6)cc5)ccc4c23)C(=O)N1 (some centres unmarked) [Compound I-215] |
| > 75% | < 1 nM | > 75% | 1 to 10 nM |  |  | C[C@@H]1CNc2c(sc3ccc4nc(-c5ccc(N6CCN(CC7CCN(c8ccc9c(c8)n(C)c(=O)n9C8CCC(=O)NC8=O)CC7)CC6)cc5F)ccc4c23)C(=O)N1 (some centres unmarked) [Compound I-289] |
| > 75% | < 1 nM | > 75% | < 1 nM |  |  | C[C@@H]1CNc2c(sc3ccc4nc(-c5cc(C#N)cc(N6CCN(CC7CCN(c8ccc9c(c8)n(C)c(=O)n9C8CCC(=O)NC8=O)CC7)CC6)c5)ccc4c23)C(=O)N1 (some centres unmarked) [Compound I-240] |
| > 75% | < 1 nM | > 75% | < 1 nM |  |  | C[C@@H]1CNc2c(sc3ccc4nc(-c5ccc(N6CCC(CCN7CCN(c8ccc9c(c8)n(C)c(=O)n9C8CCC(=O)NC8=O)CC7)CC6)cc5)ccc4c23)C(=O)N1 (some centres unmarked) [Compound I-131] |
| > 75% | < 1 nM | > 75% | < 1 nM |  |  | Cn1c(=O)n(C2CCC(=O)NC2=O)c2ccc(N3CCC(CN4CCN(c5ccc(-c6cc(-c7cc8c([nH]7)C7(CCCC7)CNC8=O)ccn6)cc5)CC4)CC3)cc21 (centres unmarked) [Compound I-192] |
| > 75% | < 1 nM | > 75% | 1 to 10 nM |  |  | C[C@@H]1CNc2c(sc3ccc4nc(-c5cccc(N6CCN(CCN7CCC(CCc8cccc9c8n(C)c(=O)n9C8CCC(=O)NC8=O)CC7)CC6)c5)ccc4c23)C(=O)N1 (some centres unmarked) [Compound I-105] |
| > 75% | < 1 nM | > 75% | < 1 nM |  |  | C[C@@H]1CNc2c(sc3ccc4nc(-c5ccc(N6CCN(CC7CCN(c8ccc9c(c8)n(C)c(=O)n9C8CCC(=O)NC8=O)CC7)CC6)cc5)ccc4c23)C(=O)N1 (some centres unmarked) [Compound I-130] |
| > 75% | 1 to 10 nM | > 75% | 1 to 10 nM |  |  | C[C@@H]1CNc2c(sc3ccc4nc(-c5ccc(N6CCN(CC7CCN(c8cccc9c8n(C)c(=O)n9C8CCC(=O)NC8=O)CC7)CC6)cc5)ccc4c23)C(=O)N1 (some centres unmarked) [Compound I-126] |
| > 75% | < 1 nM | > 75% | < 1 nM |  |  | Cn1c(=O)n(C2CCC(=O)NC2=O)c2ccc(N3CCC(CN4CCN(c5ccc(-c6cc(-c7cc8c([nH]7)C7(CC7)CNC8=O)ccn6)c(F)c5)CC4)CC3)cc21 (centres unmarked) [Compound I-218] |
| 50 to 75% | 1 to 10 nM | > 75% | 1 to 10 nM |  |  | C[C@@H]1CNc2c(sc3ccc4nc(N5CCCN(CCC6CCN(c7ccc8c(c7)n(C)c(=O)n8C7CCC(=O)NC7=O)CC6)CC5)ccc4c23)C(=O)N1 (some centres unmarked) [Compound I-444] |
| 50 to 75% | 1 to 10 nM | > 75% | 1 to 10 nM |  |  | C[C@@H]1CNc2c(sc3ccc4nc(-c5ccc(N6CCN(CCCCCc7cccc8c7n(C)c(=O)n8C7CCC(=O)NC7=O)CC6)cc5)ccc4c23)C(=O)N1 (some centres unmarked) [Compound I-171] |
| > 75% | 1 to 10 nM | > 75% |  |  | — | Cn1c(=O)n(C2CCC(=O)NC2=O)c2cccc(CCN3CCN(c4ccc(-c5cc(-c6cc7c([nH]6)C6(CC6)CNC7=O)ccn5)cn4)CC3)c21 (centres unmarked) [Compound I-200] |
| < 50% | > 100 nM | < 50% | > 100 nM |  |  | CN1CC2(CNC(=O)c3c2[nH]c2c3CCc3cnc(-c4cc(N5CCN(CCCCc6cccc7c6n(C)c(=O)n7C6CCC(=O)NC6=O)CC5)ccc4F)cc3-2)C1 (centres unmarked) [Compound I-155] |
| > 75% | < 1 nM | > 75% | < 1 nM |  |  | C[C@@H]1CNc2c(sc3ccc4nc(-c5ccc(N6CCN(CCCc7cccc8c7n(C)c(=O)n8C7CCC(=O)NC7=O)CC6)cc5)ccc4c23)C(=O)N1 (some centres unmarked) [Compound I-172] |
| 50 to 75% | 10 to 100 nM | > 75% | 10 to 100 nM |  |  | O=C1CCC(N2Cc3cc(N4CCN(CC5CCN(c6ccc(-c7cc(-c8cc9c([nH]8)CCNC9=O)ccn7)c(F)c6)CC5)CC4)ccc3C2=O)C(=O)N1 (centres unmarked) [Compound I-295] |
| > 75% | < 1 nM | > 75% | < 1 nM |  |  | Cn1c(=O)n(C2CCC(=O)NC2=O)c2ccc(N3CC(CN4CCN(c5ccc(-c6cc(-c7cc8c([nH]7)C7(CCCC7)CNC8=O)ccn6)c(F)c5)CC4)C3)cc21 (centres unmarked) [Compound I-422] |
| > 75% | < 1 nM | > 75% | < 1 nM |  |  | C[C@@H]1CNc2c(sc3ccc4nc(-c5ccc(N6CCN(CCCc7ccc8c(c7)n(C)c(=O)n8C7CCC(=O)NC7=O)CC6)nc5)ccc4c23)C(=O)N1 (some centres unmarked) [Compound I-287] |
| < 50% | > 100 nM | < 50% | > 100 nM |  |  | C[C@@H]1CNc2c(sc3ccc4nc(N5C[C@@H]6C[C@H]5CN6CC5CCN(c6cccc7c6n(C)c(=O)n7C6CCC(=O)NC6=O)CC5)ccc4c23)C(=O)N1 (some centres unmarked) [Compound I-187] |
| > 75% | < 1 nM | > 75% | < 1 nM |  |  | C[C@@H]1CNc2c(sc3ccc4nc(-c5ccc(N6CCN(CCCc7cccc8c7n(C)c(=O)n8C7CCC(=O)NC7=O)CC6)nc5)ccc4c23)C(=O)N1 (some centres unmarked) [Compound I-288] |
| > 75% | 1 to 10 nM | > 75% | 1 to 10 nM |  |  | C[C@@H]1CNc2c(sc3ccc4nc(-c5ccc(CNC(=O)CCCCCCCCCc6cccc7c6n(C)c(=O)n7C6CCC(=O)NC6=O)cc5)ccc4c23)C(=O)N1 (some centres unmarked) [Compound I-86] |
| > 75% | 1 to 10 nM | > 75% | < 1 nM |  |  | C[C@@H]1CN(C)c2c(sc3ccc4nc(-c5ccc(N6CCN(CCc7cccc8c7n(C)c(=O)n8C7CCC(=O)NC7=O)CC6)nc5)ccc4c23)C(=O)N1 (some centres unmarked) [Compound I-414] |
